Patent US20120245044A1, “METHODS OF DETERMINING CHEMOTHERAPY RESPONSE IN CANCER” (TRANSLATIONAL GENOMICS RESEARCH INSTITUTE, priority 2011, published 2012)

Legend:
Format in all cases: cell-based
[1] = system: H526-GLI1 versus H526-wt SCLC cells; test: Drug dose response, cell viability after 72 hours, GLI1 over-expressing vs parental line; conditions: H526-GLI1 compared to H526-wt
Method: (§1) Methods. Two SCLC cell lines, H69 and H526, were transduced with a GLI1 over-expressing (o/e) vector (Kasper et al, 2007) to create two lines expressing the gene: H69-GLI1 and H526-GLI1. GLI1 expression was verified by qRT-PCR. Cellular proliferation was measured over a 96-hour period. To study the drug dose response, GLI1 o/e and parental lines were treated with single-agent or combination dosing of cisplatin and etoposide, and cell viability was assessed after 72 hours. Relative GLI1 expression was compared with cisplatin response in four additional SCLC cell lines (H146, […], […]). Gene expression analysis was performed on H69-GLI1 and H69 parental cells, with two replicates for each, using Agilent (Agilent Technologies, Santa Clara, Calif.) 44K expression arrays. Data was normalized and analyzed using Genespring software (Agilent Technologies, Santa Clara, Calif.).

[2] = system: H69-GLI1 versus H69-wt SCLC cells; test: as above
Method: as §1, with “(A) Drug-dose response experiment in H69-GLI1 and H69-GLI2 versus H69-wt for cisplatin. […] (C) Drug-dose response experiment in H69-GLI1 versus H69-wt for cisplatin. Methods.” for “Methods.”

[3] = system: H69-GLI2 versus H69-wt SCLC cells; test: Drug dose response, cell viability after 72 hours; conditions: single agent, experiment H69-GLI1 and H69-GLI2 versus H69-wt (FIG. 1A/1B)
Method: as §1, with “(A) Drug-dose response experiment in H69-GLI1 and H69-GLI2 versus H69-wt for cisplatin. […] (C) Drug-dose response experiment in H69-GLI1 versus H69-wt for cisplatin. Methods.” for “Methods.”

[4] = single agent, experiment H69-GLI1 and H69-GLI2 versus H69-wt (FIG. 1A/1B), viability after 72 hours

Compound	change in cisplatin resistance [1]	shift in cisplatin resistance ([2]; H69-GLI1 compared to H69-wt, drug dose response, FIG. 1) [fold]	fold change between H69-GLI1 and H69-wt in drug-dose response ([2]; experiment H69-GLI1 versus H69-wt only (FIG. 1C)) [fold]	fold change between H69-GLI1 and H69-wt in drug-dose response [2, 4] [fold]	fold change between H69-GLI2 and H69-wt in drug-dose response [3] [fold]
N.N.[Cl][Pt][Cl] [cisplatin, cis-diamminedichloroplatinum(II)]	no significant change	≥ 1.5	2.77	1.76	1.21
COc1cc([C@@H]2c3cc4c(cc3[C@@H](O[C@@H]3O[C@@H]5CO[C@@H](C)O[C@H]5[C@H](O)[C@H]3O)[C@H]3COC(=O)[C@H]23)OCO4)cc(OC)c1O [etoposide]				4.55	1.76
